Measured values published in patent US20240261410A1, “SODIUM DE[…] ACID AS […]” (priority 2023, published 2024).

Tests used:
[1] = Solubilization in water with sodium deoxycholate; assay type: physicochemical; details: at 50° C., same conditions for tunicamycin and TunR1
Method: (§1) The modified tunicamycin TunR2 solid powder (8 mg, […]) and DOC solid powder (4.4 mg, […]) were vortexed together in an equimolar ratio, and was prepared in water for injection (3 mL) and stirred until dissolved. If needed, the pH was adjusted to 5.8 by addition of 10% acetic acid. The TunR2 was initially insoluble under these conditions, but began to dissolve after 5 minutes at 50° C. (in the range of about 50° C. to about 70° C.) and was completely soluble after 10 minutes at this temperature (FIG. 6A to FIG. 6C). […] The native tunicamycin solution became somewhat hazy after this time, but was readily clarified on gentle re-warming.
(§2) The present work undertaken to develop a water-soluble TunR2 formulation solubilized by sodium deoxycholate to reduce the solvent toxicity and to improve the physiochemical properties. Solutions were prepared either by mixing together TunR2 and DOC powders in equimolar portions and adding water, or by preparing a DOC aqueous stock solution and adding this directly to the TunR2. At 10 mg/mL, the TunR2 was initially insoluble under these conditions, but began to dissolve after 5 minutes at 50° C. and was completely soluble after 10 minutes at this temperature. […] The native tunicamycin solution became somewhat hazy after this time, but was readily clarify on gentle re-warming.

[2] = Stability of the aqueous DOC solutions on standing at room temperature; assay type: physicochemical; details: 18 hours at room temperature
Method: as §1, §2

[3] = tested on: Bacillus subtilis ATCC 6633; assay: MIC, two-fold broth dilution in TYG, 96-well microtiter plates; assay type: cell-based; details: TunR2 in DMSO, TunR2-DOC and DOC in water, table prints no unit (dilution series in μg/mL)
Method: (§3) Seed cultures of Bacillus subtilis ATCC 6633, Escherichia coli ATCC 9637, Mycobacterium smegmatis mc^2 155, and Saccharomyces cerevisiae NRRL Y-139 were started from freezer stocks and grown in tryptone-yeast extract-glucose (TYG) broth for 24 hours at 27° C. Microbial dilutions were prepared as follows. Sterile PBS (phosphate buffer saline, 1 mL) was added to a glass tube using a disposable 10 mL pipet. Using a sterile loop microbial material was transferred from an agar plate, and the turbidity was measured and adjusted to 1.0 Macfarlane units. The inoculum dilution was then prepared. To a sterile 50 mL blue-capped centrifuge tube, 50 mL TYG stock media were added using a 25 mL disposable pipet. To this tube was then added 1 mL of the microbial dilution, and the contents were mixed by vortexing (this will give a 1:50 v/v dilution). This 1:50 v/v dilution inoculum was dispensed using a multichannel pipet, adding 100 μL to each well of a 96-well round-bottom microtiter plate.
(§4) MICs and MBICs were evaluated using two-fold broth dilution series in 96-well round-bottom microtiter plates. Diluted solutions were prepared by adding 20 μl of the 1 mg/mL stock of the TunR2 to 1.980 mL of TYG in a 15 mL blue-capped centrifuge tube for a total of 2 mL volume at 10 μg/mL. […] A blank of 20 μl dimethyl sulfoxide (DMSO) up to 2 mL TYG was also included. The microtiter plates were then set up as follows. To wells 1, 2, and 3 of the first row (A row) of the microtiter plate 200 μl of TYG media control were added. To wells 4, 5, and 6 in row A of the plate 200 μl TYG+TunR2 (10 μg/mL) were added. To wells 7, 8, and 9 in row A of the plate, 200 μl TYG+DOC (5 μg/mL) were added. And to wells 10, 11, and 12 in row A of the plate, 200 μl TYG+TunR2 (10 μg/mL)+DOC (5 μg/mL) were added. To the remaining wells of the microtiter plate 100 μl of the sterile TYG liquid media were added.
(§5) Two-fold dilutions were then prepared as follows. […] The box was placed into the 37° C. incubator and microbial growth and biofilm formation were assessed visually on a daily basis for six days.

[4] = tested on: Escherichia coli ATCC 9637; assay: as above; assay type: cell-based; details: TunR2 in DMSO, TunR2-DOC and DOC in water, table prints no unit (dilution series in μg/mL)
Method: as §3, §4, §5

[5] = tested on: Saccharomyces cerevisiae NRRL Y-139; assay: as above; assay type: cell-based; details: TunR2 in DMSO, TunR2-DOC and DOC in water, table prints no unit (dilution series in μg/mL)
Method: as §3, §4, §5

[6] = DOSY-NMR, 10 mM in D2O, 600 MHz, not a partition coefficient
Method: 1H and 2D NMR (COSY, HSQC, and HMBC) spectra were recorded on a Bruker Avance III 500 MHz spectrometer operating at 125 MHz. The spectra were obtained in methanol-d4 or DMSO-d6 using residual solvent signals as internal standards. Diffusion orientated (DOSY) NMR spectra were obtained on a JEOL 600 mHz instrument using DOSY pulse sequences provide by the manufacturer.
The diffusion constants (log D) of residual deuterated water (HDO) and methanol (MeOD) are also indicated on the graphs. The corresponding ^1H-NMR spectra are shown above the graphs. All spectra were acquired at 600 MHz.

[7] = tested on: Mycobacterium smegmatis mc^2 155; assay: MIC and MBIC (growth and biofilm formation), two-fold broth dilution in TYG; assay type: cell-based
Method: MICs and MBICs were evaluated using two-fold broth dilution series in 96-well round-bottom microtiter plates. […]
Two-fold dilutions were then prepared as follows. […] The box was placed into the 37° C. incubator and microbial growth and biofilm formation were assessed visually on a daily basis for six days. […]

| Substance | time to complete dissolution in water with DOC ([1]; 8 mg TunR2 + 4.4 mg DOC in 3 mL water for injection) | time to complete dissolution in water with DOC ([1]; at 10 mg/mL, equimolar DOC) | state of aqueous DOC solution after cooling and standing [2] | Minimal Inhibitory Concentration [3] | Minimal Inhibitory Concentration [4] | Minimal Inhibitory Concentration [5] | diffusion constant (log D) [6] | effect of DOC control in the MIC assays ([7]; DOC at the same concentration as the TunR2) | Minimal Inhibitory Concentration ([7]; first figure of cell MIC/MBIC, TunR2 in DMSO, TunR2-DOC and DOC in water, unit not given) |
| --- | --- | --- | --- | --- | --- | --- | --- | --- | --- |
| tunicamycin | ≤ 5 min | ≤ 5 min | somewhat hazy | – | – | – | – | – | – |
| 5β-cholan-24-oic acid-3α, 12α-diol sodium salt [DOC] | – | – | – | >2.5 | >2.5 | >2.5 | −9.66 | no effect | >2.5 |
